Assay results from the supplement of paper PMC10307832.

Legend:
Assay in all cases: relative viability (nuclei count vs DMSO), 5 days (fraction); higher = more cells survive
NCI-H661 = system: NCI-H661
Procedure, shortened: (§1)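 Cells from lung cancer lines were seeded into 1536-well plates and, one day later, dosed by pin tool. Treatments were either a single drug or a fixed dose of an anchor drug with five library-drug doses (not always all listed) in √10 steps. After 5 days, nuclei were stained in a one-step fixation (final 0.05% Triton X-100, 1% formaldehyde, 1 ug/ml Hoechst) and counted on 4× images, and relative viability is the treated-to-vehicle nuclei ratio, as the median of duplicate plates.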

SK-LU-1 = system: SK-LU-1
Procedure, shortened: as §1

NCI-H2405 = system: NCI-H2405
Procedure, shortened: as §1

NCI-H23 = system: NCI-H23
Procedure, shortened: as §1

NCI-H596 = system: NCI-H596
Procedure, shortened: as §1

HCC-827 = system: HCC-827
Procedure, shortened: as §1

EKVX = system: EKVX
Procedure, shortened: as §1

NCI-H650 = system: NCI-H650
Procedure, shortened: as §1

HOP-62 = system: HOP-62
Procedure, shortened: as §1

LOU-NH91 = system: LOU-NH91
Procedure, shortened: as §1

NCI-H3122 = system: NCI-H3122
Procedure, shortened: as §1

COR-L 105 = system: COR-L 105
Procedure, shortened: as §1

NCI-H1975 = system: NCI-H1975
Procedure, shortened: as §1

LCLC-103H = system: LCLC-103H
Procedure, shortened: as §1

HARA = system: HARA
Procedure, shortened: as §1

PC-3 [JPC-3] = system: PC-3 [JPC-3]
Procedure, shortened: as §1

NCI-H2126 = system: NCI-H2126
Procedure, shortened: as §1

NCI-H727 = system: NCI-H727
Procedure, shortened: as §1

H3255 = system: H3255
Procedure, shortened: as §1

NCI-H2228 = system: NCI-H2228
Procedure, shortened: as §1

201T = system: 201T
Procedure, shortened: as §1

Which relative viability (NCI-H661; first compound 0.002 µM) does the source give for `CCNC(=O)c1noc(-c2cc(C(C)C)c(O)cc2O)c1-c1ccc(CN2CCOCC2)cc1` [Luminespib] + C[C@]1(O)C[C@@H](c2nc(-c3ccc4ccc(-c5ccccc5)nc4c3)c3c(N)nccn32)C1 [Linsitinib] (partner 1 µM) here?
The relative viability was 0.569.

And the relative viability (NCI-H661; first compound 0.006325 µM)?
Its relative viability is 0.527.

What about the relative viability (NCI-H661; first compound 0.02 µM) of the same compound?
The relative viability was 0.369.

What about the relative viability (NCI-H661; first compound 0.06325 µM) of the same compound?
Its relative viability is 0.395.

What about the relative viability (NCI-H661; first compound 0.2 µM) of the same compound?
Its relative viability is 0.187.

And the relative viability (SK-LU-1; first compound 0.002 µM)?
The relative viability was 1.02.

What about the relative viability (SK-LU-1; first compound 0.006325 µM) of the same compound?
The relative viability was 0.89.

What about the relative viability (SK-LU-1; first compound 0.02 µM) of the same compound?
The relative viability was 0.474.

And the relative viability (SK-LU-1; first compound 0.06325 µM)?
Its relative viability is 0.193.

What about the relative viability (SK-LU-1; first compound 0.2 µM) of the same compound?
The relative viability was 0.178.

What about the relative viability (NCI-H2405; first compound 0.002 µM) of the same compound?
Its relative viability is 1.01.

And the relative viability (NCI-H2405; first compound 0.006325 µM)?
The relative viability was 0.721.

What about the relative viability (NCI-H2405; first compound 0.02 µM) of the same compound?
Its relative viability is 0.613.

And the relative viability (NCI-H2405; first compound 0.06325 µM)?
The relative viability was 0.254.

And the relative viability (NCI-H2405; first compound 0.2 µM)?
The relative viability was 0.182.

And the relative viability (NCI-H23; first compound 0.002 µM)?
The relative viability was 0.674.

What about the relative viability (NCI-H23; first compound 0.006325 µM) of the same compound?
Its relative viability is 0.55.

And the relative viability (NCI-H23; first compound 0.02 µM)?
The relative viability was 0.355.

What about the relative viability (NCI-H23; first compound 0.06325 µM) of the same compound?
The relative viability was 0.172.

And the relative viability (NCI-H23; first compound 0.2 µM)?
Its relative viability is 0.136.

And the relative viability (NCI-H596; first compound 0.002 µM)?
Its relative viability is 1.06.

And the relative viability (NCI-H596; first compound 0.006325 µM)?
The relative viability was 0.995.

And the relative viability (NCI-H596; first compound 0.06325 µM)?
The relative viability was 1.06.

What about the relative viability (NCI-H596; first compound 0.2 µM) of the same compound?
The relative viability was 0.907.

What about the relative viability (HCC-827; first compound 0.002 µM) of the same compound?
The relative viability was 0.922.

What about the relative viability (HCC-827; first compound 0.006325 µM) of the same compound?
Its relative viability is 0.925.

And the relative viability (HCC-827; first compound 0.02 µM)?
Its relative viability is 0.937.

What about the relative viability (HCC-827; first compound 0.06325 µM) of the same compound?
Its relative viability is 0.974.

What about the relative viability (HCC-827; first compound 0.2 µM) of the same compound?
The relative viability was 1.02.

And the relative viability (EKVX; first compound 0.002 µM)?
The relative viability was 1.

And the relative viability (EKVX; first compound 0.006325 µM)?
The relative viability was 0.989.

What about the relative viability (EKVX; first compound 0.02 µM) of the same compound?
The relative viability was 0.721.

And the relative viability (EKVX; first compound 0.06325 µM)?
The relative viability was 0.779.

And the relative viability (EKVX; first compound 0.2 µM)?
Its relative viability is 0.179.

And the relative viability (NCI-H650; first compound 0.002 µM)?
Its relative viability is 0.917.

And the relative viability (NCI-H650; first compound 0.006325 µM)?
Its relative viability is 0.888.

And the relative viability (NCI-H650; first compound 0.02 µM)?
Its relative viability is 0.497.

And the relative viability (NCI-H650; first compound 0.06325 µM)?
The relative viability was 0.0891.

And the relative viability (NCI-H650; first compound 0.2 µM)?
The relative viability was 0.117.

What about the relative viability (HOP-62; first compound 0.002 µM) of the same compound?
Its relative viability is 1.07.

What about the relative viability (HOP-62; first compound 0.006325 µM) of the same compound?
Its relative viability is 0.958.

And the relative viability (HOP-62; first compound 0.02 µM)?
The relative viability was 0.945.

And the relative viability (HOP-62; first compound 0.06325 µM)?
Its relative viability is 1.12.

And the relative viability (HOP-62; first compound 0.2 µM)?
Its relative viability is 0.934.

What about the relative viability (LOU-NH91; first compound 0.002 µM) of the same compound?
The relative viability was 0.913.

And the relative viability (LOU-NH91; first compound 0.006325 µM)?
The relative viability was 0.923.

What about the relative viability (LOU-NH91; first compound 0.02 µM) of the same compound?
Its relative viability is 0.649.

What about the relative viability (LOU-NH91; first compound 0.06325 µM) of the same compound?
The relative viability was 0.393.

What about the relative viability (LOU-NH91; first compound 0.2 µM) of the same compound?
Its relative viability is 0.348.

And the relative viability (NCI-H3122; first compound 0.002 µM)?
The relative viability was 0.936.

What about the relative viability (NCI-H3122; first compound 0.006325 µM) of the same compound?
The relative viability was 0.973.

And the relative viability (NCI-H3122; first compound 0.02 µM)?
The relative viability was 0.945.

And the relative viability (NCI-H3122; first compound 0.06325 µM)?
Its relative viability is 0.172.

And the relative viability (NCI-H3122; first compound 0.2 µM)?
Its relative viability is 0.146.

And the relative viability (COR-L 105; first compound 0.002 µM)?
The relative viability was 0.843.

And the relative viability (COR-L 105; first compound 0.006325 µM)?
The relative viability was 0.811.

What about the relative viability (COR-L 105; first compound 0.02 µM) of the same compound?
The relative viability was 0.991.

What about the relative viability (COR-L 105; first compound 0.06325 µM) of the same compound?
Its relative viability is 0.245.

What about the relative viability (COR-L 105; first compound 0.2 µM) of the same compound?
The relative viability was 0.207.

And the relative viability (NCI-H1975; first compound 0.002 µM)?
The relative viability was 1.08.

And the relative viability (NCI-H1975; first compound 0.006325 µM)?
Its relative viability is 0.882.

And the relative viability (NCI-H1975; first compound 0.02 µM)?
Its relative viability is 0.492.

What about the relative viability (NCI-H1975; first compound 0.06325 µM) of the same compound?
Its relative viability is 0.156.

And the relative viability (NCI-H1975; first compound 0.2 µM)?
Its relative viability is 0.141.

And the relative viability (LCLC-103H; first compound 0.002 µM)?
Its relative viability is 1.14.

What about the relative viability (LCLC-103H; first compound 0.006325 µM) of the same compound?
The relative viability was 0.971.

And the relative viability (LCLC-103H; first compound 0.02 µM)?
Its relative viability is 1.1.

What about the relative viability (LCLC-103H; first compound 0.06325 µM) of the same compound?
Its relative viability is 1.03.

And the relative viability (LCLC-103H; first compound 0.2 µM)?
Its relative viability is 1.04.

What about the relative viability (HARA; first compound 0.002 µM) of the same compound?
Its relative viability is 0.85.

What about the relative viability (HARA; first compound 0.006325 µM) of the same compound?
The relative viability was 0.797.

What about the relative viability (HARA; first compound 0.02 µM) of the same compound?
Its relative viability is 1.12.

What about the relative viability (HARA; first compound 0.06325 µM) of the same compound?
Its relative viability is 0.738.

And the relative viability (HARA; first compound 0.2 µM)?
Its relative viability is 0.0694.

And the relative viability (PC-3 [JPC-3]; first compound 0.002 µM)?
Its relative viability is 0.963.

What about the relative viability (PC-3 [JPC-3]; first compound 0.006325 µM) of the same compound?
Its relative viability is 0.939.

And the relative viability (PC-3 [JPC-3]; first compound 0.02 µM)?
Its relative viability is 0.991.

What about the relative viability (PC-3 [JPC-3]; first compound 0.06325 µM) of the same compound?
Its relative viability is 0.997.

And the relative viability (PC-3 [JPC-3]; first compound 0.2 µM)?
Its relative viability is 0.897.

And the relative viability (NCI-H2126; first compound 0.002 µM)?
The relative viability was 0.686.

And the relative viability (NCI-H2126; first compound 0.006325 µM)?
Its relative viability is 0.652.

What about the relative viability (NCI-H2126; first compound 0.02 µM) of the same compound?
Its relative viability is 0.536.

What about the relative viability (NCI-H2126; first compound 0.06325 µM) of the same compound?
Its relative viability is 0.761.

What about the relative viability (NCI-H2126; first compound 0.2 µM) of the same compound?
Its relative viability is 0.741.

What about the relative viability (NCI-H727; first compound 0.002 µM) of the same compound?
Its relative viability is 0.317.

What about the relative viability (NCI-H727; first compound 0.006325 µM) of the same compound?
The relative viability was 0.258.

What about the relative viability (NCI-H727; first compound 0.02 µM) of the same compound?
Its relative viability is 0.284.

What about the relative viability (NCI-H727; first compound 0.06325 µM) of the same compound?
The relative viability was 0.221.

What about the relative viability (NCI-H727; first compound 0.2 µM) of the same compound?
The relative viability was 0.211.

What about the relative viability (H3255; first compound 0.002 µM) of the same compound?
Its relative viability is 0.929.

What about the relative viability (H3255; first compound 0.006325 µM) of the same compound?
The relative viability was 0.868.

What about the relative viability (H3255; first compound 0.02 µM) of the same compound?
The relative viability was 0.65.

And the relative viability (H3255; first compound 0.06325 µM)?
Its relative viability is 0.885.

What about the relative viability (H3255; first compound 0.2 µM) of the same compound?
The relative viability was 0.228.

And the relative viability (NCI-H2228; first compound 0.002 µM)?
Its relative viability is 0.612.

And the relative viability (NCI-H2228; first compound 0.006325 µM)?
The relative viability was 0.629.

What about the relative viability (NCI-H2228; first compound 0.02 µM) of the same compound?
The relative viability was 0.203.

And the relative viability (NCI-H2228; first compound 0.06325 µM)?
The relative viability was 0.168.

And the relative viability (NCI-H2228; first compound 0.2 µM)?
The relative viability was 0.199.

And the relative viability (201T; first compound 0.002 µM)?
Its relative viability is 1.03.

What about the relative viability (201T; first compound 0.006325 µM) of the same compound?
The relative viability was 0.988.

And the relative viability (201T; first compound 0.02 µM)?
Its relative viability is 0.872.

What about the relative viability (201T; first compound 0.06325 µM) of the same compound?
The relative viability was 1.08.

And the relative viability (201T; first compound 0.2 µM)?
The relative viability was 1.01.
